Experimental findings from patent US9758561B2 (priority 2014, dated 2017) are described below.

T1 sequence (P43220 24-463): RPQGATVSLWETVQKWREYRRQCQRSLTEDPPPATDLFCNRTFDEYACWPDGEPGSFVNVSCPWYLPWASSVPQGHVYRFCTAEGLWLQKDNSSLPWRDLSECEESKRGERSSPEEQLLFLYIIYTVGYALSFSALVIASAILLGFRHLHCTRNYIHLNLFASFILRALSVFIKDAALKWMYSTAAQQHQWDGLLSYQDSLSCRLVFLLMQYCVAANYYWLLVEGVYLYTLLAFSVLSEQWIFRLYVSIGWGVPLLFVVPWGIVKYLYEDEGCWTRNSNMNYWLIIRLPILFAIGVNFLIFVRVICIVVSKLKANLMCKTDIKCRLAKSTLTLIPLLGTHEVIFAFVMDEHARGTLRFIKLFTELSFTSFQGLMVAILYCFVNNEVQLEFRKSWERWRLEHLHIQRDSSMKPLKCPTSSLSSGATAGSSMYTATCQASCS

One experiment concerns the target T1, human GLP-1 receptor (Homo sapiens, UniProt P43220).
T1 construct: expressed in transfected cells; host or cells: HEK-293
Nature of the experiment: cAMP response of HEK-293 cells stably expressing human GLP-1 receptor (HTRF). Type of experiment: cell-based. The note with it: Table 6; read-out: EC50 hGLP-1R. On the procedure:
For preparation, cells were split into T175 culture flasks and grown overnight to near confluency in medium (DMEM/10% FBS). Medium was then removed and cells washed with PBS lacking calcium and magnesium, followed by proteinase treatment with accutase (Sigma-Aldrich cat. no. A6964). Detached cells were washed and resuspended in assay buffer (1×HBSS; 20 mM HEPES, 0.1% BSA, 2 mM IBMX) and cellular density determined. They were then diluted to 400000 cells/ml and 25 μl-aliquots dispensed into the wells of 96-well plates. For measurement, 25 μl of test compound in assay buffer was added to the wells, followed by incubation for 30 minutes at room temperature. […] Potencies of peptidic compounds at the GLP-1, glucagon and GIP receptors were determined by exposing cells expressing human glucagon receptor (hGlucagon R), human GIP receptor (hGIP-R) or human GLP-1 receptor (hGLP-1R) to the listed compounds at increasing concentrations and measuring the formed cAMP as described in Methods.
Turning to `CCCCCCCCCCCCCCCCCC(=O)NCCOCCOCC(=O)NCCOCCOCC(=O)NCCOCCOCC(=O)NCCCC[C@H](NC(=O)[C@H](CCC(N)=O)NC(=O)[C@H](CCCCN)NC(=O)[C@H](CO)NC(=O)[C@H](CC(C)C)NC(=O)[C@H](CC(=O)O)NC(=O)[C@H](CO)NC(=O)[C@@H](NC(=O)[C@H](Cc1ccccc1)NC(=O)[C@@H](NC(=O)CNC(=O)[C@H](CCC(N)=O)NC(=O)[C@@H](CO)NC(=O)[C@@H](N)Cc1c[nH]cn1)[C@@H](C)O)[C@@H](C)O)C(=O)N[C@@H](CC(=O)O)C(=O)N[C@@H](CCC(=O)O)C(=O)N[C@@H](CCC(=O)O)C(=O)N[C@@H](C)C(=O)N[C@@H](C)C(=O)N[C@@H](CCCNC(=N)N)C(=O)N[C@@H](CC(C)C)C(=O)N[C@@H](Cc1ccccc1)C(=O)N[C@H](C(=O)N[C@@H](CCC(=O)O)C(=O)N[C@@H](Cc1c[nH]c2ccccc12)C(=O)N[C@@H](CC(C)C)C(=O)NC(C)(C)C(=O)N[C@@H](C)C(=O)NCC(=O)NCC(=O)N1CCC[C@H]1C(=O)N[C@@H](CO)C(=O)N[C@@H](CO)C(=O)NCC(=O)N[C@@H](C)C(=O)N1CCC[C@H]1C(=O)N1CCC[C@H]1C(=O)N1CCC[C@H]1C(=O)N[C@@H](CO)C(N)=O)[C@@H](C)CC` [SEQ ID NO: 22, H-dSer-Q-G-T-F-T-S-D-L-S-K-Q-K(AEEAc-AEEAc-AEEAc-x70)-D-E-E-A-A-R-L-F-I-E-W-L-Aib-A-G-G-P-S-S-G-A-P-P-P-S-NH2], the concentration giving a half-maximal response (EC50) worked out at 1.8 pM.

With `CCCCCCCCCCCCCCCC(=O)N[C@@H](CCC(=O)N[C@@H](CCC(=O)NCCCC[C@H](NC(=O)[C@H](CCC(N)=O)NC(=O)[C@H](CCCCN)NC(=O)[C@H](CO)NC(=O)[C@H](CC(C)C)NC(=O)[C@H](CC(=O)O)NC(=O)[C@H](CO)NC(=O)[C@@H](NC(=O)[C@H](Cc1ccccc1)NC(=O)[C@@H](NC(=O)CNC(=O)[C@H](CCC(N)=O)NC(=O)[C@@H](CO)NC(=O)[C@@H](N)Cc1c[nH]cn1)[C@@H](C)O)[C@@H](C)O)C(=O)N[C@@H](CC(=O)O)C(=O)N[C@@H](CCC(=O)O)C(=O)N[C@@H](CCC(=O)O)C(=O)N[C@@H](C)C(=O)N[C@H](C(=O)N[C@@H](CCCNC(=N)N)C(=O)N[C@@H](CC(C)C)C(=O)N[C@@H](Cc1ccccc1)C(=O)N[C@H](C(=O)N[C@@H](CCC(=O)O)C(=O)N[C@@H](Cc1c[nH]c2ccccc12)C(=O)N[C@@H](CC(C)C)C(=O)NC(C)(C)C(=O)N[C@@H](C)C(=O)NCC(=O)NCC(=O)N1CCC[C@H]1C(=O)N[C@@H](CO)C(=O)N[C@@H](CO)C(=O)NCC(=O)N[C@@H](C)C(=O)N1CCC[C@H]1C(=O)N1CCC[C@H]1C(=O)N1CCC[C@H]1C(=O)N[C@@H](CO)C(N)=O)[C@@H](C)CC)C(C)C)C(=O)O)C(=O)O` [SEQ ID NO: 17, H-dSer-Q-G-T-F-T-S-D-L-S-K-Q-K(γE-γE-x53)-D-E-E-A-V-R-L-F-I-E-W-L-Aib-A-G-G-P-S-S-G-A-P-P-P-S-NH2], the EC50 was found to be 2.4 pM.

Consider `CCCCCCCCCCCCCCCC(=O)N[C@@H](CCC(=O)N[C@@H](CCC(=O)NCCCC[C@H](NC(=O)[C@H](CCC(N)=O)NC(=O)[C@H](CCCCN)NC(=O)[C@H](CO)NC(=O)[C@H](CC(C)C)NC(=O)[C@H](CC(=O)O)NC(=O)[C@H](CO)NC(=O)[C@@H](NC(=O)[C@H](Cc1ccccc1)NC(=O)[C@@H](NC(=O)CNC(=O)[C@H](CCC(N)=O)NC(=O)[C@@H](CO)NC(=O)[C@@H](N)Cc1c[nH]cn1)[C@@H](C)O)[C@@H](C)O)C(=O)N[C@@H](CC(=O)O)C(=O)N[C@@H](CCC(=O)O)C(=O)N[C@@H](CCC(=O)O)C(=O)N[C@@H](C)C(=O)N[C@@H](C)C(=O)N[C@@H](CCCNC(=N)N)C(=O)N[C@@H](CC(C)C)C(=O)N[C@@H](Cc1ccccc1)C(=O)N[C@H](C(=O)N[C@@H](CCC(=O)O)C(=O)N[C@@H](Cc1c[nH]c2ccccc12)C(=O)N[C@@H](CC(C)C)C(=O)NC(C)(C)C(=O)N[C@@H](CO)C(=O)NCC(=O)NCC(=O)N1CCC[C@H]1C(=O)N[C@@H](CO)C(=O)N[C@@H](CO)C(=O)NCC(=O)N[C@@H](C)C(=O)N1CCC[C@H]1C(=O)N1CCC[C@H]1C(=O)N1CCC[C@H]1C(=O)N[C@@H](CO)C(N)=O)[C@@H](C)CC)C(=O)O)C(=O)O` [SEQ ID NO: 15, H-dSer-Q-G-T-F-T-S-D-L-S-K-Q-K(γE-γE-x53)-D-E-E-A-A-R-L-F-I-E-W-L-Aib-S-G-G-P-S-S-G-A-P-P-P-S-NH2], for which the EC50 came to 1.8 pM.

As for `CCCCCCCCCCCCCCCCCC(=O)N[C@@H](CCC(=O)NCCCC[C@H](NC(=O)[C@H](CCC(N)=O)NC(=O)[C@H](CCCCN)NC(=O)[C@H](CO)NC(=O)[C@H](CC(C)C)NC(=O)[C@H](CC(=O)O)NC(=O)[C@H](CO)NC(=O)[C@@H](NC(=O)[C@H](Cc1ccccc1)NC(=O)[C@@H](NC(=O)CNC(=O)[C@H](Cc1c[nH]cn1)NC(=O)[C@@H](CO)NC(=O)[C@@H](N)Cc1c[nH]cn1)[C@@H](C)O)[C@@H](C)O)C(=O)N[C@@H](CC(=O)O)C(=O)N[C@@H](CCC(=O)O)C(=O)N[C@@H](CCC(=O)O)C(=O)N[C@@H](C)C(=O)N[C@@H](C)C(=O)N[C@@H](CCCNC(=N)N)C(=O)N[C@@H](CC(C)C)C(=O)N[C@@H](Cc1ccccc1)C(=O)N[C@H](C(=O)N[C@@H](CCC(=O)O)C(=O)N[C@@H](Cc1c[nH]c2ccccc12)C(=O)N[C@@H](CC(C)C)C(=O)NC(C)(C)C(=O)N[C@@H](C)C(=O)NCC(=O)NCC(=O)N1CCC[C@H]1C(=O)N[C@@H](CO)C(=O)N[C@@H](CO)C(=O)NCC(=O)N[C@@H](C)C(=O)N1CCC[C@H]1C(=O)N1CCC[C@H]1C(=O)N1CCC[C@H]1C(=O)N[C@@H](CO)C(N)=O)[C@@H](C)CC)C(=O)O` [SEQ ID NO: 8, H-dSer-H-G-T-F-T-S-D-L-S-K-Q-K(γE-x70)-D-E-E-A-A-R-L-F-I-E-W-L-Aib-A-G-G-P-S-S-G-A-P-P-P-S-NH2], the EC50 came out at 1.8 pM.

In the case of `CCCCCCCCCCCCCCCC(=O)N[C@@H](CCC(=O)N[C@@H](CCC(=O)NCCCC[C@H](NC(=O)[C@H](CCC(N)=O)NC(=O)[C@H](CCCCN)NC(=O)[C@H](CO)NC(=O)[C@H](CC(C)C)NC(=O)[C@H](CC(=O)O)NC(=O)[C@H](CO)NC(=O)[C@@H](NC(=O)[C@H](Cc1ccccc1)NC(=O)[C@@H](NC(=O)CNC(=O)[C@H](Cc1c[nH]cn1)NC(=O)[C@@H](CO)NC(=O)[C@@H](N)Cc1c[nH]cn1)[C@@H](C)O)[C@@H](C)O)C(=O)N[C@@H](CCC(=O)O)C(=O)N[C@@H](CCC(=O)O)C(=O)N[C@@H](CCC(=O)O)C(=O)N[C@@H](C)C(=O)N[C@@H](C)C(=O)N[C@@H](CCCNC(=N)N)C(=O)N[C@@H](CC(C)C)C(=O)N[C@@H](Cc1ccccc1)C(=O)N[C@H](C(=O)N[C@@H](CCC(=O)O)C(=O)N[C@@H](Cc1c[nH]c2ccccc12)C(=O)N[C@@H](CC(C)C)C(=O)NC(C)(C)C(=O)N[C@@H](CCCCN)C(=O)N[C@H](C)C(=O)NCC(=O)N1CCC[C@H]1C(=O)N[C@@H](CO)C(=O)N[C@@H](CO)C(=O)NCC(=O)N[C@@H](C)C(=O)N1CCC[C@H]1C(=O)N1CCC[C@H]1C(=O)N1CCC[C@H]1C(=O)N[C@@H](CO)C(N)=O)[C@@H](C)CC)C(=O)O)C(=O)O` [SEQ ID NO: 27, H-dSer-H-G-T-F-T-S-D-L-S-K-Q-K(γE-γE-x53)-E-E-E-A-A-R-L-F-I-E-W-L-Aib-K-dAla-G-P-S-S-G-A-P-P-P-S-NH2], the EC50 was 2.1 pM.

Still in this experiment, the particulars now being: Table 8; comparison Aib vs. Lys in position 27; read-out: EC50 hGLP-1R.
Consider `CCCCCCCCCCCCCCCC(=O)N[C@@H](CCC(=O)N[C@@H](CCC(=O)NCCCC[C@H](NC(=O)[C@H](CCC(N)=O)NC(=O)[C@H](CCCCN)NC(=O)[C@H](CO)NC(=O)[C@H](CC(C)C)NC(=O)[C@H](CC(=O)O)NC(=O)[C@H](CO)NC(=O)[C@@H](NC(=O)[C@H](Cc1ccccc1)NC(=O)[C@@H](NC(=O)CNC(=O)[C@H](CCC(N)=O)NC(=O)[C@H](CO)NC(=O)[C@@H](N)Cc1c[nH]cn1)[C@@H](C)O)[C@@H](C)O)C(=O)N[C@@H](CC(=O)O)C(=O)N[C@@H](CCC(=O)O)C(=O)N[C@@H](CCC(=O)O)C(=O)N[C@@H](C)C(=O)N[C@@H](C)C(=O)N[C@@H](CCCNC(=N)N)C(=O)N[C@@H](CC(C)C)C(=O)N[C@@H](Cc1ccccc1)C(=O)N[C@H](C(=O)N[C@@H](CCC(=O)O)C(=O)N[C@@H](Cc1c[nH]c2ccccc12)C(=O)N[C@@H](CC(C)C)C(=O)N[C@@H](CCCCN)C(=O)N[C@@H](C)C(=O)NCC(=O)NCC(=O)N1CCC[C@H]1C(=O)N[C@@H](CO)C(=O)N[C@@H](CO)C(=O)NCC(=O)N[C@@H](C)C(=O)N1CCC[C@H]1C(=O)N1CCC[C@H]1C(=O)N1CCC[C@H]1C(=O)N[C@@H](CO)C(N)=O)[C@@H](C)CC)C(=O)O)C(=O)O` [SEQ ID NO: 33, H-S-Q-G-T-F-T-S-D-L-S-K-Q-K(γE-γE-x53)-DEEAARLFIEWLKAGGPSSGAPPPS-NH2, reference compound], for which the EC50 was found to be 1 pM.
